These results are taken from patent US9540314B2, “N-cycloalkyl-N-[(cycloalkenylphenyl)methylene]-(thio) carboxamide derivatives” (BAYER INTELLECTUAL PROPERTY GMBH, priority 2012, dated 2017).

Marks after values point to notes of the source that are not given here.

Data set [1] is described as follows: log P by HPLC on a reversed-phase column (C 18), EEC Directive 79/831 Annex V.A8. It is filed as physicochemical. As to conditions: HPLC C 18, 40° C., 0.1% aqueous formic acid and acetonitrile; for logP: Table 1, several values = mixture of 2 or more isomers; for chromatographic logP: reversed-phase HPLC column (C 18), Table 2, compounds of formula (IIa). The procedure:
In table 1, the log P values were determined in accordance with EEC Directive 79/831 Annex V.A8 by HPLC (High Performance Liquid Chromatography) on a reversed-phase column (C 18), using the method described below:
Temperature: 40° C.; Mobile phases: 0.1% aqueous formic acid and acetonitrile; linear gradient from 10% acetonitrile to 90% acetonitrile.
Calibration was carried out using unbranched alkan-2-ones (comprising 3 to 16 carbon atoms) with known log P values (determination of the log P values by the retention times using linear interpolation between two successive alkanones). lambda-max-values were determined using UV-spectra from 200 nm to 400 nm and the peak values of the chromatographic signals.

Another data set relates to Puccinia recondita. In words: In vivo preventive test on Puccinia recondita (brown rust on wheat). As to conditions: 500 ppm of active ingredient; wheat plants, preventive spray; grading 12 days after contamination. The procedure:
(§1) The active ingredients tested are prepared by homogenization in a mixture of acetone/tween/DMSO, and then diluted with water to obtain the desired active material concentration.
Wheat plants (“Scipion” variety), sown in starter cups on a 50/50 peat soil pozzolana substrate and grown at 22° C., are treated at the 1 leaf stage (10 cm height) by spraying with the active ingredient prepared as described above. Plants, used as controls, are treated with the mixture of acetone/tween/DMSO/water not containing the active material.
After 24 hours, the plants are contaminated by spraying the leaves with an aqueous suspension of Puccinia recondita spores (100 000 spores per mL). The spores are collected from an infected plant and are suspended in water containing 2.5 mL/L of Tween 80 at 10%. The contaminated wheat plants are incubated for 24 hours at 20° C. and at 100% relative humidity, and then for 10 days at 20° C. and at 70-80% relative humidity.
Grading (% of efficacy) is carried out 12 days after the contamination, in comparison with the control plants.
Under these conditions, good (at least 70%) to total protection is observed at a dose of 500 ppm of active ingredient with the following compounds from table I: […]

Another data set concerns Uromyces appendiculatus. The data set can be described thus: In vivo preventive test on Uromyces appendiculatus (bean rust). The note with it: bean plants; for protection: Table K2 comparison with saturated analogues, 500 ppm, preventive, 11 days after contamination. The procedure: as §1
After 24 hours, the plants are contaminated by spraying the leaves with an aqueous suspension of Uromyces appendiculatus spores (150 000 spores per mL). The spores are collected from infected plants and are suspended in water containing 2.5 mL/L of Tween 80 at 10%. The contaminated bean plants are incubated for 24 hours at 20° C. and at 100% relative humidity, and then for 10 days at 20° C. and at 70-80% relative humidity.
Grading (% of efficacy) is carried out 11 days after the contamination, in comparison with the control plants.

The next data set deals with Pyrenophora teres. In words: In vivo preventive test on Pyrenophora teres (barley). As to conditions: Table H2; 100 ppm, barley plants, preventive, grading 14 days after contamination. The procedure:
as §1
Barley plants (“Plaisant” variety), sown in starter cups on a 50/50 peat soil pozzolana substrate and grown at 22° C., are treated at the 1 leaf stage (10 cm height) by spraying with the active ingredient prepared as described above. Plants, used as controls, are treated with the mixture of acetone/tween/DMSO/water not containing the active material.
After 24 hours, the plants are contaminated by spraying the leaves with an aqueous suspension of Pyrenophora teres spores (12 000 spores per mL). The spores are collected from a 12-day-old culture.
The contaminated barley plants are incubated for 48 hours at 20° C. and at 100% relative humidity, and then for 12 days at 20° C. at 70-80% relative humidity.
Grading (% of efficacy) is carried out 14 days after the contamination, in comparison with the control plants.
Under these conditions, good (at least 70%) to total protection is observed at a dose of 500 ppm of active ingredient with the following compounds from table H1: […]

[2] abbreviates: dose 100 ppm, comparison with saturated analogues (table K2).
Setting [3] is: dose 500 ppm, comparison with saturated analogues (table K2).
Where [4] appears, read: 500 ppm of active ingredient, preventive spray, grading 11 days after contamination (table K1).

Broadly, the logP is a log measure of how a compound divides between an organic and an aqueous phase. `CC1CC=C(c2ccc(F)cc2CN(C(=O)c2c(C(F)F)nn(C)c2Cl)C2CC2)CC1` (racemic) [I.47]: the logP in data set [1] stood at 5.14. The compound also gave an Efficacy with Puccinia recondita of 81%.
`CC1CC=C(c2ccc(F)cc2CN(C(=S)c2c(C(F)F)nn(C)c2Cl)C2CC2)CC1` (racemic) [I.48]: in data set [1], the log partition coefficient (logP) was 5.77.
As to `Cn1nc(C(F)F)c(C(=O)N(Cc2ccccc2C2CCCC2)C2CC2)c1F` [CMP4, N-(2-cyclopentylbenzyl)-N-cyclopropyl-3-(difluoromethyl)-5-fluoro-1-methyl-1H-pyrazole-4-carboxamide, reference compound], the protection entry with Uromyces appendiculatus was “poor (less than 20%) protection or plant damages”. Moreover, the Efficacy with Uromyces appendiculatus (setting [2]) came to 100%.
For `Cn1cc(C(=O)N(Cc2ccccc2C2CCCCC2)C2CC2)c(C(F)F)n1` [CMP5, N-(2-cyclohexylbenzyl)-N-cyclopropyl-3-(difluoromethyl)-1-methyl-1H-pyrazole-4-carboxamide, reference compound], the protection entry in the data set on Uromyces appendiculatus was “poor (less than 20%) protection or plant damages”. Also, the Efficacy with Uromyces appendiculatus (setting [2]) turned out to be 0%.
On to `Cn1nc(C(F)F)c(C(=O)N(Cc2ccccc2C2CCCCC2)C2CC2)c1F` [CMP6, N-(2-cyclohexylbenzyl)-N-cyclopropyl-3-(difluoromethyl)-5-fluoro-1-methyl-1H-pyrazole-4-carboxamide, reference compound], for which the protection result in the data set on Uromyces appendiculatus is “poor (less than 20%) protection or plant damages”. For the same compound, the Efficacy with Uromyces appendiculatus (setting [2]) is 38^(d) %.
Consider `Cn1nc(C(F)F)c(C(=O)N(Cc2ccccc2C2CCCCC2)C2CC2)c1Cl` [CMP7, 5-chloro-N-(2-cyclohexylbenzyl)-N-cyclopropyl-3-(difluoromethyl)-1-methyl-1H-pyrazole-4-carboxamide, reference compound], for which, in the data set with Uromyces appendiculatus, the protection result is “poor (less than 20%) protection or plant damages”. The Efficacy with Uromyces appendiculatus (setting [2]) was determined as 0%; in the data set with Uromyces appendiculatus (setting [3]), 13%.
On to `Cn1cc(C(=O)N(Cc2ccccc2C2=CCCC2)C2CC2)c(C(F)F)c1` [I.5], for which the log partition coefficient (logP) in data set [1] is recorded as 4.13.
Compound `O=C(c1ccsc1I)N(Cc1ccccc1C1=CCCC1)C1CC1` [I.6] came in with an Efficacy in the data set on Uromyces appendiculatus (setting [4]) of 88%. Also, the log partition coefficient (logP) in data set [1] stood at 4.85.
Consider `Cn1nc(C(F)F)c(C(=O)N(Cc2cc(C3=CCCC3)ccc2Cl)C2CC2)c1Cl` [I.8], for which the lipophilicity (logP) in data set [1] is given as 4.82. Moreover, in the data set on Pyrenophora teres, the Efficacy is given as 71%.
On the same counts, the results for `Cn1nc(C(F)F)c(C(=O)N(Cc2cc(C3=CCCC3)ccc2Cl)C2CC2)c1F` [I.9] are 4.59 and 79%.
In the case of `Cn1cc(C(=O)N(Cc2cc(C3=CCCC3)ccc2Cl)C2CC2)c(C(F)F)n1` [I.10], the logP in data set [1] came to 4.14.
Still for that read-out and setting: for `Cn1cc(C(=O)N(Cc2cc(C3=CCCC3)ccc2Cl)C2CC2)c(C(F)F)c1` [I.11] the value was 4.63.
As for `O=C(c1ccsc1I)N(Cc1cc(C2=CCCC2)ccc1Cl)C1CC1` [I.12], in data set [1], the log partition coefficient (logP) is on record as 5.51.
Consider `Cn1nc(C(F)F)c(C(=O)N(Cc2cc(Cl)ccc2C2=CCCC2)C2CC2)c1F` [I.20], for which the log partition coefficient (logP) in data set [1] is recorded as 4.54. For the same compound, in the data set with Pyrenophora teres, the Efficacy is on record as 97%.
In the case of `O=C(c1ccsc1I)N(Cc1cc(Cl)ccc1C1=CCCC1)C1CC1` [I.21], the logP in data set [1] came out at 5.36.
`Cn1cc(C(=O)N(Cc2cc(Cl)ccc2C2=CCCC2)C2CC2)c(C(F)F)n1` [I.22]: in data set [1], the logP is 4.06. This compound registered an Efficacy in the data set on Pyrenophora teres of 71%.
For `Cn1nc(C(F)F)c(C(=O)N(Cc2cc(Cl)ccc2C2=CCCC2)C2CC2)c1Cl` [I.23], the logP in data set [1] is 4.74.
On to `Cn1cc(C(=O)N(Cc2cc(Cl)ccc2C2=CCCC2)C2CC2)c(C(F)F)c1` [I.24], for which the log partition coefficient (logP) in data set [1] was found to be 4.58.
With `Cn1nc(C(F)F)c(C(=O)N(Cc2ccccc2C2=CCCCC2)C2CC2)c1Cl` [I.29], the Efficacy with Uromyces appendiculatus (setting [4]) is recorded as 84%; in the data set on Uromyces appendiculatus (setting [2]) it was 35%; with Uromyces appendiculatus (setting [3]) it was 84%; in the data set on Puccinia recondita it was 81%. In data set [1], the logP came out at 4.66.
Regarding `O=C(c1ccsc1I)N(Cc1cc(C2=CCCCC2)ccc1Cl)C1CC1` [I.35], the log partition coefficient (logP) in data set [1] was found to be 5.87.
Take `Cn1cc(C(=O)N(Cc2cc(C3=CCCCC3)ccc2Cl)C2CC2)c(C(F)F)c1` [I.36]: in data set [1], the lipophilicity (logP) is recorded as 4.93.
Turning to `Cn1cc(C(=O)N(Cc2cc(C3=CCCCC3)ccc2Cl)C2CC2)c(C(F)F)n1` [I.37], the logP in data set [1] is on record as 4.46.
With `Cn1nc(C(F)F)c(C(=O)N(Cc2cc(Cl)ccc2C2=CCCCC2)C2CC2)c1Cl` [I.38], in data set [1], the logP came to 5.11.
Regarding `Cn1cc(C(=O)N(Cc2cc(Cl)ccc2C2=CCCCC2)C2CC2)c(C(F)F)n1` [I.39], the lipophilicity (logP) in data set [1] stood at 4.44.
With `Cn1cc(C(=O)N(Cc2cc(Cl)ccc2C2=CCCCC2)C2CC2)c(C(F)F)c1` [I.40], the logP in data set [1] is 4.93.
Take `Cn1nc(C(F)F)c(C(=O)N(Cc2cc(Cl)ccc2C2=CCCCC2)C2CC2)c1F` [I.41]: in data set [1], the lipophilicity (logP) was determined as 4.88.
`O=C(c1ccsc1I)N(Cc1cc(Cl)ccc1C1=CCCCC1)C1CC1` [I.42]: in data set [1], the log partition coefficient (logP) came out at 5.78.
For the compound `O=C(c1ccsc1I)N(Cc1ccccc1C1=CCCCCC1)C1CC1` [I.52], in the data set with Uromyces appendiculatus (setting [4]), the Efficacy came to 75%. The log partition coefficient (logP) in data set [1] stood at 5.78.
`Cn1nc(C(F)F)c(C(=O)N(Cc2cc(Cl)ccc2C2=CCCCCC2)C2CC2)c1F` [I.54]: in data set [1], the log partition coefficient (logP) was found to be 5.31.
Regarding `Cn1cc(C(=O)N(Cc2cc(Cl)ccc2C2=CCCCCC2)C2CC2)c(C(F)F)c1` [I.55], in data set [1], the lipophilicity (logP) is on record as 5.34.
For `Cn1nc(C(F)F)c(C(=O)N(Cc2cc(Cl)ccc2C2=CCCCCC2)C2CC2)c1Cl` [I.56], the logP in data set [1] was found to be 5.54.
In the case of `O=C(c1ccsc1I)N(Cc1cc(Cl)ccc1C1=CCCCCC1)C1CC1` [I.58], in data set [1], the logP was 6.27.
In general, chromatographic logP refers to lipophilicity estimated from chromatographic retention. Low readings indicate a more hydrophilic compound, high ones a more lipophilic compound. In turn, `CC(NC1CC1)c1ccccc1C1=CCCC1` (stereo not shown) [IIa.1, N-{1-[2-(cyclopent-1-en-1-yl)phenyl]ethyl}cyclopropanamine] gave a chromatographic logP in data set [1] of 1.72.
In turn, `C1=C(c2ccccc2CNC2CC2)CCC1` [IIa.2, N-[2-(cyclopent-1-en-1-yl)benzyl]cyclopropanamine] came in with a chromatographic logP in data set [1] of 1.19.
In the case of `Clc1ccc(C2=CCCC2)c(CNC2CC2)c1` [IIa.3, N-[5-chloro-2-(cyclopent-1-en-1-yl)benzyl]cyclopropanamine], in data set [1], the chromatographic logP is 1.28. This chromatographic logP and that of the compound before are within 0.2 log units of each other.
The compound `CC(NC1CC1)c1cc(F)ccc1C1=CCCC1` (stereo not shown) [IIa.4, N-{1-[2-(cyclopent-1-en-1-yl)-5-fluorophenyl]ethyl}cyclopropanamine] registered a chromatographic logP in data set [1] of 1.56.
In data set [1], `Clc1ccc(C2=CCCC2)cc1CNC1CC1` [IIa.5, N-[2-chloro-5-(cyclopent-1-en-1-yl)benzyl]cyclopropanamine] registered a chromatographic logP of 1.39.
In turn, `C1=C(c2ccccc2CNC2CC2)CCCC1` [IIa.6, N-[2-(cyclohex-1-en-1-yl)benzyl]cyclopropanamine] had a chromatographic logP in data set [1] of 1.37.
On to `Clc1ccc(C2=CCCCC2)c(CNC2CC2)c1` [IIa.7, N-[5-chloro-2-(cyclohex-1-en-1-yl)benzyl]cyclopropanamine], for which, in data set [1], the chromatographic logP came to 1.45.
Turning to `Clc1ccc(C2=CCCCC2)cc1CNC1CC1` [IIa.8, N-[2-chloro-5-(cyclohex-1-en-1-yl)benzyl]cyclopropanamine], the chromatographic logP in data set [1] worked out at 1.45.
With `C1=C(c2ccccc2CNC2CC2)CCCCC1` [IIa.9, N-[2-(cyclohept-1-en-1-yl)benzyl]cyclopropanamine], the chromatographic logP in data set [1] was found to be 1.45.
Take `Clc1ccc(C2=CCCCCC2)c(CNC2CC2)c1` [IIa.10, N-[5-chloro-2-(cyclohept-1-en-1-yl)benzyl]cyclopropanamine]: the chromatographic logP in data set [1] came to 1.71.
